Test results taken from patent US7279324B2, “Nucleic acid encoding G-protein coupled receptor with modified DRY motif” (Duke University, priority 2001, dated 2007).
Changes are numbered by the printed parent chain. “Also recorded” adds a separate entry of the source.

Columns and labels:
mock = assay: Whole cell cAMP accumulation in HEK-293 cells; type: cell-based; settings: 2.5 μM AVP for 15 min., mean±SD, n=3
AT1AR R126H-GFP = molecular target: T1, AT1AR R126H-GFP (Rattus norvegicus, UniProt P25095, L81C/R126H/S109T); assay: Receptor-GFP localization by confocal microscopy in HEK-293 cells; type: cell-based; settings: cultured in 1 μM L158,809, no agonist
T1 construct: expressed in transfected cells; host or cells: HEK-293
T1 sequence (P25095 1-359 L81C/S109T/R126H): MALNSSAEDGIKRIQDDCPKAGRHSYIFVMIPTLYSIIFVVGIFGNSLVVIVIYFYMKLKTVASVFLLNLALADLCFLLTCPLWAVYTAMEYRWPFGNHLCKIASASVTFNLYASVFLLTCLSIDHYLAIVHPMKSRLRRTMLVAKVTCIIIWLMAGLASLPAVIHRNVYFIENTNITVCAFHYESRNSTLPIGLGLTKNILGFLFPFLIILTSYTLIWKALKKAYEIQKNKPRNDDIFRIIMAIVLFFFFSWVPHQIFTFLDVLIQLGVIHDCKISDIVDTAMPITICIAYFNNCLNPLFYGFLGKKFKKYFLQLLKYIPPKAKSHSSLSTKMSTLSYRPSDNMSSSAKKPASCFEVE
Procedure: (§1) Cell Culture and Transfection—For V2R experiments: HEK-293 cells were grown in Eagle's minimal essential medium with Earle's salt (MEM) supplemented with 10% fetal bovine serum and a 1:100 dilution of penicillin/streptomycin (Sigma Chemicals, St. Louis, Mo.). Cells were transiently transfected with plasmid cDNA using a modified calcium phosphate co-precipitation method as described in Barak et al., 1997, Mol. Pharmacol., 51:177–84. For α1B-AR and AT1AR experiments: Cells were transiently transfected in 10 cm^2 dishes (Falcon) with 1 μg receptor or GRK plasmid cDNA in pCDNA3.1(−) using above modified calcium phosphate transfection coprecipitation method for inositol phosphate and binding assays. For confocal microscopy, cells were transiently transfected in collagen (Sigma) coated 35 mm^2 glass bottom confocal dishes (MatTek, Ashland, Mass.) with Lipofectamine®2000 and Opti-MEM media (Life Technologies) using a standard method (Ciccarone, V., et al., 1999, Focus 21.2, 54–55). Cells for confocal microscopy were transfected with 30 ng of βarrestin or receptor plasmid cDNA in pEGFP and 250 ng of dynamin(K44A), GRK, or receptor in pcDNA3.1/zeo.
(§2) Confocal Microscopy—HEK-293 cells were plated on the day following transfection onto collagen (Sigma Chemical, St. Louis, Mo.) treated 35 mm^2 glass-bottomed culture dishes. […]

α1B-AR R143A = molecular target: T2, α1B-AR R143A (Mesocricetus auratus, UniProt P18841, R143A); assay: [3H]prazosin whole cell binding, Scatchard analysis, HEK-293 cells; design: species or system golden hamster; settings: [3H]prazosin Scatchard, similar to wild type, read-out: KD for NE
T2 construct: expressed in transfected cells; host or cells: HEK-293
T2 sequence (P18841 1-515 R143A): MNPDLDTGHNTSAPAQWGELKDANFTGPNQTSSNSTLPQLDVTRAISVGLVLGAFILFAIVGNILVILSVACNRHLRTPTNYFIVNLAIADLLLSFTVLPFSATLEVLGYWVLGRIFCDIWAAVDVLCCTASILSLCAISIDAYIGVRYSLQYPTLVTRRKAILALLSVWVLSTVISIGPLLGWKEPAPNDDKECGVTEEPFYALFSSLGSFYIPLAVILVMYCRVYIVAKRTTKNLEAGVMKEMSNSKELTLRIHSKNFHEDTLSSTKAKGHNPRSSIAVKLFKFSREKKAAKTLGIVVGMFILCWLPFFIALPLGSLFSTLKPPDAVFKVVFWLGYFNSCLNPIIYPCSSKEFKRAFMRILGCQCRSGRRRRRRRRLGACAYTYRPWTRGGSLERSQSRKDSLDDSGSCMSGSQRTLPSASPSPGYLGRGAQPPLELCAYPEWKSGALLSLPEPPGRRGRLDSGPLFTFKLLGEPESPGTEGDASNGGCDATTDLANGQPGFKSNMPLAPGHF
Procedure: (§4) For α1B-AR and AT1AR experiments: Transiently transfected HEK-293 cells in 10 cm^2 dishes were washed twice in cold binding buffer (MEM+2% bovine serum albumin [BSA]), incubated for 1 hour at room temperature in binding buffer with varying concentrations of [^3H]prazosin (0.25 nM–8 nM), and washed three times in cold binding buffer to remove unbound ligand. Cell bound [^3H]prazosin was measured using a scintillation counter. Nonspecific binding was determined in the presence of 1000-fold molar excess of phentolamine (10 μM). For binding assays done to measure the effect of the co-expression of dynamin(K44A) or the addition of phentolamine in FIG. 14, a fixed concentration of 8 nM [^3H]prazosin was used.

wild type α1B-AR [1] = molecular target: T3, wild type α1B-AR (Mesocricetus auratus, UniProt P18841); assay: [3H]inositol phosphate accumulation in HEK-293 cells; type: cell-based, golden hamster; settings: 10 μM NE, 30 min., vs absence of agonist
T3 construct: expressed in transfected cells; host or cells: HEK-293
T3 sequence (P18841 1-515): T2 sequence (P18841 1-515 R143A) with A143R
Procedure: (§5) Inositol Phosphate Determination—Transiently transfected HEK-293 cells in 10 cm^2 dishes were plated onto 12-well plates (Falcon) coated with 25 mg/ml poly-D-lysine (Sigma) and incubated overnight in MEM+10% FBS (fetal bovine serum) at 37° C. To assay for inositol phosphate production, cells were incubated overnight at 37° C. in labeling media (1 μCi/0.5 ml/well of [^3H]inositol in MEM+5% fetal bovine serum). Cells were washed with MEM, 20 mM HEPES, pH 7.4, 20 mM LiCl for 5 minutes at 37° C. and then treated with agonist.

α1B-AR R143 mutants [2] = assay: βarrestin-GFP translocation in HEK-293 cells; type: cell-based, golden hamster; settings: 10 μM NE (data not shown)
Procedure: as §1, §2

wild type α1B-AR [3] = molecular target: T3, wild type α1B-AR; assay: βarrestin-GFP translocation in HEK-293 cells; type: cell-based, golden hamster; settings: 10 μM NE
Procedure: as §1, §2

wild type α1B-AR-GFP = molecular target: T4, wild type α1B-AR-GFP (Mesocricetus auratus, UniProt P18841); assay: Receptor-GFP localization by confocal microscopy in HEK-293 cells; type: cell-based, golden hamster
T4 construct: expressed in transfected cells; host or cells: HEK-293
T4 sequence (P18841 1-515): T2 sequence (P18841 1-515 R143A) with A143R
Procedure: as §1
(§3) Confocal Microscopy—HEK-293 cells were plated on the day following transfection onto collagen (Sigma Chemical, St. Louis, Mo.) treated 35 mm^2 glass-bottomed culture dishes. Confocal microscopy was performed with a Zeiss laser-scanning microscope (LSM-510). GFP images were collected using the 488 nm argon excitation and a 505 nm long pass filter. For α1B-AR and AT1AR experiments: HEK-293 cells were transiently transfected in 35 mm^2 confocal dishes. Cells were stimulated with 10 μM NE or 1 μM AngII and incubated at 37° C. for 30 minutes before viewing. Alternatively, cells were cultured overnight at 37° C. in 10 μM phentolamine or 1 μM L158,809. Confocal microscopy was performed at 100× magnification with a Zeiss laser-scanning microscope (LSM-510). GFP and FITC images were collected using 488-nm excitation and a 505-nm long-pass filter.

α1B-AR R143 mutants [4] = assay: [3H]inositol phosphate accumulation in HEK-293 cells; type: cell-based, golden hamster; settings: 10 μM NE; R143 substituted with Ala, Glu, His or Asn
Procedure: as §5

wild type α1B-AR [5] = molecular target: T3, wild type α1B-AR; assay: [3H]prazosin whole cell binding, Scatchard analysis, HEK-293 cells; design: species or system golden hamster; settings: [3H]prazosin Scatchard, read-out: KD for NE
Procedure: as §4

α1B-AR R143E-GFP [6] = molecular target: T5, α1B-AR R143E-GFP (Mesocricetus auratus, UniProt P18841, R143E); assay: Plasma membrane receptor expression by whole cell [3H]prazosin binding; type: cell-based, golden hamster; settings: cultured in 10 μM phentolamine at 37° C. overnight; 8 nM [3H]prazosin
T5 construct: expressed in transfected cells; host or cells: HEK-293
T5 sequence (P18841 1-515 R143E): T2 sequence (P18841 1-515 R143A) with A143E
Procedure: as §4

α1B-AR R143E-GFP [7] = molecular target: T5, α1B-AR R143E-GFP; assay: Receptor-GFP localization by confocal microscopy in HEK-293 cells; type: cell-based, golden hamster; settings: cultured in 10 μM phentolamine at 37° C. overnight, no agonist
Procedure: as §1, §3

AT1AR R126H [8] = molecular target: T6, AT1AR R126H (Rattus norvegicus, UniProt P25095, L81C/R126H/S109T); assay: [3H]inositol phosphate accumulation in HEK-293 cells; type: cell-based; settings: stimulated with AngII (1 μM, 1 μg elsewhere in the source)
T6 construct: expressed in transfected cells; host or cells: HEK-293
T6 sequence (P25095 1-359 L81C/S109T/R126H): T1 sequence (P25095 1-359 L81C/S109T/R126H)
Procedure: Inositol Phosphate Determination—Transiently transfected HEK-293 cells in 10 cm^2 dishes were plated onto 12-well plates (Falcon) coated with […] poly-D-lysine (Sigma) and incubated overnight in MEM+10% FBS (fetal bovine serum) at 37° C. To assay for inositol phosphate production, cells were incubated overnight at 37° C. in labeling media (1 μCi/0.5 ml/well of [^3H]inositol in MEM+5% fetal bovine serum). Cells were washed with MEM, 20 mM HEPES, pH 7.4, 20 mM LiCl for 5 minutes at 37° C. and then treated with agonist. Total inositol phosphate was extracted and separated as previously described in Cotecchia, S., et al., 1992, J. Biol. Chem. 267: 1633–1639.

wild type AT1AR-GFP = molecular target: T7, wild type AT1AR-GFP (Rattus norvegicus, UniProt P25095); assay: Receptor-GFP localization by confocal microscopy in HEK-293 cells; type: cell-based; settings: 1 μM AngII
T7 construct: expressed in transfected cells; host or cells: HEK-293
T7 sequence (P25095 1-359): T1 sequence (P25095 1-359 L81C/S109T/R126H) with C81L, T109S, H126R
Procedure: as §1, §2

AT1AR R126H [9] = molecular target: T6, AT1AR R126H; assay: βarrestin-GFP translocation in HEK-293 cells; type: cell-based; settings: 1 μM AngII
Procedure: as §1, §2

wild type AT1AR = molecular target: T8, wild type AT1AR (Rattus norvegicus, UniProt P25095); assay: βarrestin-GFP translocation in HEK-293 cells; type: cell-based; settings: 1 μM AngII
T8 construct: expressed in transfected cells; host or cells: HEK-293
T8 sequence (P25095 1-359): T1 sequence (P25095 1-359 L81C/S109T/R126H) with C81L, T109S, H126R
Procedure: as §1, §2

With `NC(=O)CC[C@@H]1NC(=O)[C@H](Cc2ccccc2)NC(=O)[C@H](Cc2ccc(O)cc2)NC(=O)[C@@H](N)CSSC[C@@H](C(=O)N2CCC[C@H]2C(=O)N[C@@H](CCCN=C(N)N)C(=O)NCC(N)=O)NC(=O)[C@H](CC(N)=O)NC1=O` [AVP, Arginine vasopressin] the “stimulated cAMP response” value (mock) was 0.017±0.006 (counts of [^3H]cAMP per min. per well)/(counts of [^3H]adenine uptake per minute per well).

With `CCc1nc2c(C)cc(C)nc2n1Cc1ccc(-c2ccccc2-c2nnn[nH]2)cc1` [L158,809, 2-ethyl-5,7-dimethyl-3-[[2′-(1H-tetrazol-5-yl)[1,1′-biphenyl]-4-yl]methyl]-3H-Imidazo[4,5-b]pyridine] the “distribution of receptor-GFP” value (AT1AR R126H-GFP) was “reversal of the receptor localization back to the plasma membrane; also recorded: redistribution of the receptor back to the plasma membrane”.

`NC[C@H](O)c1ccc(O)c(O)c1` [NE, Norepinephrine] was tested, and the Kd (α1B-AR R143A) was 1.5 to 3.5 nM, the “increase of [3H]-IP accumulation” value (wild type α1B-AR [1]) was 6 fold and the “distribution of βarrestin-GFP” value (α1B-AR R143 mutants [2]) was “enhances this translocation”. For the same molecule, the “distribution of βarrestin-GFP” value (wild type α1B-AR [3]) was “rapid translocation of βarrestin-GFP to the plasma membrane”, the “distribution of receptor-GFP” value (wild type α1B-AR-GFP; 10 μM NE, 30 minutes at 37° C.) was “loss of plasma membrane expression and the redistribution of the receptor to endocytic vesicles” and the “agonist-induced IP response” value (α1B-AR R143 mutants [4]) was “significantly impaired ability to mediate an agonist-induced IP response”. The Kd (wild type α1B-AR [5]) was 1.5 to 3.5 nM.

In the case of `Cc1ccc(N(CC2=NCCN2)c2cccc(O)c2)cc1` [phentolamine], the “plasma membrane receptor expression (whole cell [3H]prazosin binding)” value (α1B-AR R143E-GFP [6]) is reported as “increases to the level of the wild type receptor”, the “distribution of receptor-GFP” value (α1B-AR R143E-GFP [7]) is reported as “complete reversal; also recorded: redistribution of the α1B-AR R143E-GFP from endosomes to the plasma membrane” and the “distribution of receptor-GFP” value (wild type α1B-AR-GFP; cultured in 10 μM phentolamine at 37° C. overnight) is reported as “no alteration in the expression of the receptor at the plasma membrane; also recorded: no effect on the distribution of the wild type α1B-AR-GFP”.

angiotensin II [AngII] was tested, and the “[3H]-IP accumulation / signaling compared to stimulated wild type AT1AR” value (AT1AR R126H [8]) was “slight impairment of signaling; also recorded: levels identical to HEK cells transfected with wild type AT1AR”, the “distribution of receptor-GFP” value (wild type AT1AR-GFP) was “internalization of the receptor into endocytic vesicles” and the “distribution of βarrestin-GFP” value (AT1AR R126H [9]) was “enhanced distribution of βarrestin-GFP into endocytic vesicles”. The “distribution of βarrestin-GFP” value (wild type AT1AR) was “redistribution of the βarrestin-GFP into endocytic vesicles”.
